Structures can show the parent of a compound that is named as a salt.
Legend:
[1] = target: human thrombocytes; test: Inhibition of binding of ^3 H-BIBU 52 to human thrombocytes (Fibrinogen-binding test); conditions: ^3 H-BIBU 52 5 nM, human platelet-rich plasma 1:10 diluted, ambient temperature, 20 minutes
Protocol: 1. Inhibition of binding of ^3 H-BIBU 52 to human thrombocytes: […] Case 5/1093-FL) and various concentrations of the substance to be tested. The free and bound ligand is separated by centrifuging and quantitatively determined by scintillation counting. The inhibition of ^3 H-BIBU 52 binding by the test substance is determined from the measurements obtained. In order to do this, donor blood is taken from an anticubital vein and anticoagulated with trisodium citrate (final concentration 13 mM). The blood is centrifuged for 10 minutes at 170 x g and the supernatant platelet-rich plasma (PRP) is removed. The remaining blood is sharply centrifuged once more in order to obtain plasma. The PRP is diluted 1:10 with autologous plasma. 750 μl are incubated with 50 μl of physiological saline solution, 100 μl of test substance solution, 50 μl of ^14 C-sucrose (3,700 Bq) and 50 μl of ^3 H-BIBU 52 (final concentration: 5 nM) at ambient temperature for 20 minutes. In order to measure the non-specific binding, 5 μl of BIBU 52 (final concentration: 30 μM) are used instead of the test substance. The samples are centrifuged for 20 seconds at 10,000 x g and the supernatant is poured off. 100 μl thereof are measured in order to determine the free ligand. The pellet is dissolved in 500 μl of 0.2N NaOH, 450 μl are mixed with 2 ml of scintillator and 25 μl of 5N HCl and measured. The residual plasma remaining in the pellet is determined from the ^14 C-content and the bound ligand is determined from the ^3 H-measurement. After the non-specific binding has been deducted, the pellet activity is plotted against the concentration of the test substance and the concentration for a 50% inhibition of binding is determined.

[2] = tested on: platelet aggregation; test: Antithrombotic activity: inhibition of collagen-induced platelet aggregation (Born and Cross method); type: cell-based; conditions: Homo sapiens, 10 min, platelet-rich plasma from healthy volunteers, 10 minutes incubation at 37° C.
Protocol: 2. Antithrombotic activity Method The thrombocyte aggregation is measured using the Born and Cross method (J. Physiol. 170:397 (1964)) in platelet-rich plasma taken from healthy volunteers. To inhibit coagulation the blood is mixed with 3.14% sodium citrate in a volume ratio of 1:10. Collagen-induced aggregation The pattern of the decrease in optical density of the platelet suspension is photometrically measured and recorded after the addition of the aggregation-triggering substance. The rate of aggregation is determined from the angle of inclination of the density curve. The point on the curve where there is maximum light transmittance is used to calculate the optical density. The amount of collagen used is as small as possible but sufficient to produce an irreversible reaction curve. Standard commercial collagen produced by Hormonchemie of Munich is used. Before the addition of the collagen the plasma is incubated for 10 minutes with the substance at 37° C. From the measurements obtained an EC50 is determined graphically, indicating a 50% change in the optical density in terms of the inhibition of aggregation. The Table which follows contains the results found: […]

[3] = tested on: mice; test: Tolerability after intravenous administration to mice; type: in vivo; conditions: intravenous administration of 15 mg/kg, 3 animals

| Structure (SMILES) | IC50 [1] | EC50 [2] | deaths [3] |
| --- | --- | --- | --- |
| N=C(N)c1ccc(N2CC(N3CCOCC3)=C(c3ccc(CCC(=O)O)cc3)C2=O)cc1 [2(3), 1-(4-amidinophenyl)-3-[4-(2-carboxy-ethyl)-phenyl]-4-morpholino-3-pyrrolin-2-one-hydrochloride] | 42 nM | 730 nM | – |
| CC1(c2ccc(CCC(=O)O)cc2)C(=O)CN(c2ccc(C(=N)N)cc2)C1=O (stereo not shown) [Example 13, 1-(4-Amidinophenyl)-3-[4-(2-carboxy-ethyl)-phenyl]-3-methyl-pyrrolidin-2,4-dione-hydrochloride] | 360 nM | 500 nM | – |
| COC1=C(c2ccc(CCC(=O)O)cc2)C(=O)N(c2ccc(CN)cc2)C1 [2(55), 1-(4-aminomethyl-phenyl)-3-[4-(2-carboxy-ethyl)phenyl]-4-methoxy-3-pyrrolin-2-one-hydrochloride] | 180 nM | 330 nM | – |
| COC1=C(c2ccc(CCC(=O)O)cc2)C(=O)N(c2ccc(C(=N)N)cc2)C1 [Example 2, -(4-Amidinophenyl)-3-[4-(2-carboxyethyl)-phenyl]-4-methoxy-3-pyrrolin-2one-hydrochloride] | 11 nM | 40 nM | none of the 3 animals tested died |
| N=C(N)c1ccc(N2CCC(c3ccc(CCC(=O)O)cc3)C2=O)cc1 (stereo not shown) [2(13), 1-(4-amidinophenyl)-3-[4-(2-carboxy-ethyl)-phenyl]-pyrrolidin-2-one-hydrochloride] | 110 nM | 260 nM | – |
| COC(=O)CCc1ccc(C2=C(OC)CN(c3ccc(CN)cc3)C2=O)cc1 [5(B), 1-(4-Aminomethyl-phenyl)-4-methoxy-3-[4-(2-methoxycarbonyl-ethyl)-phenyl]-3-pyrrolin-2-one] | 8600 nM | 380 nM | – |
